Assay results from patent publication US11370816B2, “Histatins and method of use thereof” (THE BOARD OF TRUSTEES OF THE UNIVERSITY OF ILLINOIS, priority 2015, dated 2022).
Starred links: 1 amine or outer side, 2 acyl side, 3 side chain; linkers in the order of their positions; H or OH if unused. Non-standard residues stand in square brackets, D forms with d. No end group written: not given here. (CH2)6 = -(CH2)6- hydrocarbon linking residues, C(CCC[*:2])CC[*:1]; pS = N[C@@H](COP(=O)(O)O)C(=O)O

Key:
Candida albicans = conditions: Jang, et al. (2008); cited from earlier work
[1] = Oudhoff, et al. (2008); cited from earlier work
[2] = system: human corneal epithelial cells; assay: Benzalkonium chloride (BAK) injury model, LDH release; assay type: cell-based; conditions: 0.002% BAK
Description: Columns represent the mortality (mean±SD) of cells, total cellular death being 100% (Control).
One particularly useful model of dry eye disease and inflammatory ocular disease is the use of benzalkonium chloride (BAK) to induce cell death, inflammation and injury to ocular surfaces and corneal cells (Tressler, et al. (2011) Ocul. Surf. 9:140-58; Paimela, et al. (2012) Mol. Vis. 18:1189-1196). Briefly, human corneal epithelial cells were cultured under standard conditions. Cells were treated with native HTN5 (50 μM) or synthetic histatin (10 μM) in the presence or absence of 0.002% BAK. The permeability of cellular membranes following the exposures was determined by measuring the amount of released lactate dehydrogenase (LDH) enzyme from the cells. Maximum LDH release of cells was determined by lysing cells, and subsequently measuring the LDH from the culture medium. […] Accordingly, endogenous and synthetic histatins could be used to protect cells from injury, inflammation and cell death and are therefore of use in the treatment of dry eye disease.

[3] = system: Human umbilical vein endothelial cells (HUVECs); assay: Tube formation assay, VEGF-induced angiogenesis; assay type: cell-based; conditions: VEGF 10 ng/mL, peptide 50 μM
Description: Tube formation assays were used to assess the anti-angiogenic property of synthetic histatin compared to native HTN1 and HTN2. Human umbilical vein endothelial cells (HUVECs) were suspended in diluted MATRIGEL for an overnight incubation and then subjected to a media change containing VEGF (10 ng/mL) (Goodwin (2007) Microvasc. Res. 74:172-83) alone or VEGF (10 ng/mL) in combination with HTN1, HTN2 or synthetic histatin (50 μM).

[4] = system: human corneal epithelium cells; assay: In vitro scratch assay (cell migration, wound closure); assay type: cell-based; conditions: for Time to Closure: control no closure in 48 hours
Text: A conventional in vitro scratch assay was used to measure cell migration in the presence of a synthetic histatin containing three metal binding domains from HTN5 and one wound healing domain (i.e., SEQ ID NO:29). A “scratch” was made in a monolayer of human corneal epithelium cells and time lapsed microscopy was used to capture images at the beginning and at regular intervals during cell migration to close the scratch.

human corneal epithelium = assay: Gene expression changes after synthetic histatin application; assay type: cell-based; conditions: synthetic histatin treatment
Text: Pathophysiological analyses of dry eye disease indicate that the critical factors involved in the development of dry eye disease involve inflammatory pathways including Th17/IL-17, I-CAM, IL-8, TNFα/IL-1/IL-6/NFκB, IL-10, MMP9 (and other matrix metalloproteinases) and TLR4/HSP (Stevenson, et al. (2012) Arch. Ophthalmol. 130(1):90-100). In addition, it has been reported that Ephrin A is involved in the development of epitheliopathy, poor wound healing and corneal disease related to elevated sugar levels/diabetic and neuropathic ulcers of the ocular surface. Accordingly, it was determined what effect synthetic histatin application would have on the gene expression in human corneal epithelium. […] Th17/IL-17 pathway is a central and important pathway in dry eye disease (Stevenson, et al. (2012) Arch Ophthalmol. 130(1):90-100).

MMP2 = molecular target: T1, MMP2 (Homo sapiens, UniProt P08253); assay: Zymography analysis of MMP2 inhibition; assay type: biochemical; conditions: pro-MMP2 activated with APMA, varying amounts of peptide
T1 sequence (P08253 110-660): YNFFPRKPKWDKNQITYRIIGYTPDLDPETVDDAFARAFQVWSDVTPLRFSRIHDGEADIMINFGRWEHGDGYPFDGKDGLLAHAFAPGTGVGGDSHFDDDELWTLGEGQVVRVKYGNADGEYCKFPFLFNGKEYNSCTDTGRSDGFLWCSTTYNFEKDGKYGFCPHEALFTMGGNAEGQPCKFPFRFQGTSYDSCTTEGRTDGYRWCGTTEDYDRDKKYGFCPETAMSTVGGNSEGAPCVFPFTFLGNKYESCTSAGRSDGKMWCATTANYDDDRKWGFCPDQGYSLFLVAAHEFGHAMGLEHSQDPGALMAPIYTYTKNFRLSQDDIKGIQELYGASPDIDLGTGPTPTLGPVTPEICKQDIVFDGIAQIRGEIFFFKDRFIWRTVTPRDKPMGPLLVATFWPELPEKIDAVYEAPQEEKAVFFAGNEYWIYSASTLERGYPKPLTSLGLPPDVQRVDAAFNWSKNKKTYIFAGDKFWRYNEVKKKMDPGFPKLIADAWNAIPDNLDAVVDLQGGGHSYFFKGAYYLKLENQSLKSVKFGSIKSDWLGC
Description: FIG. 1 show zymographic analysis of synthetic histatin inhibitory activity. Experiments included pro-MMP2 (100 ng; “−Ve”); activation of Pro-MMP2 with APMA (1 mM; “+Ve”); inclusion of a classic matrix metalloproteinase inhibitor, GM6001 (200 nM; “Inh”); and varying amounts of a synthetic histatin containing three metal binding domains from endogenous HTN5 and a wound healing domain from endogenous HTN1 (“H-1”). The protein ladder is shown on the right.
Zymography analysis of a synthetic histatin containing three metal binding domains from HTN5 and one wound healing domain (i.e., SEQ ID NO:29) was carried out using conventional methods. See, e.g., Thomadaki, et al. (2013) Oral Dis. 19(8):781-8.

[5] = Oppenheim, et al. (2012); cited from earlier work

AKRHHGYKRKFH [P-113]
fungicidal activity (Candida albicans): exhibits fungicidal activity

DSHAKRHHGYKRKFHEKHHSHRGY [HTN5, endogenous (native) histatin 5, reference compound]
wound closure activity in vitro [1]: inactivity
cell death (released LDH) ([2]; 50 μM peptide): statistically significant reduction in cell death

DSHAKRHHGYKRKFHEKHHSHRGYRSNYLYDN [HTN3, endogenous (native) histatin 3]
wound closure activity in vitro [1]: exhibit wound closure activities in vitro

DSpHEKRHHGYRRKFHEKHHSHREFPFYGDYGSNYLYDN (D[pS]HEKRHHGYRRKFHEKHHSHREFPFYGDYGSNYLYDN) [HTN1, endogenous (native) histatin 1]
wound closure activity in vitro [1]: exhibit wound closure activities in vitro
formation of capillary-like structures / inhibition of angiogenesis [3]: inhibition of angiogenesis

HEKHH-(CH2)6-HEKHH-(CH2)6-HEKHH-(CH2)6-YGDYGSNYLYDN (HEKHH[(CH2)6]HEKHH[(CH2)6]HEKHH[(CH2)6]YGDYGSNYLYDN) [synthetic histatin]
Time to Closure ([4]; 1 μM synthetic histatin): 48 h
Time to Closure ([4]; 10 μM synthetic histatin): 22 h
wound healing (reduction in time to wound closure) ([4]; scratch in monolayer, time lapsed microscopy): notable enhancement of wound healing
expression of genes related to MMP activity (human corneal epithelium): reduced
expression of several members of the TNFα/IL-1/IL-6/NFKB pathway (human corneal epithelium): significant reduced
genes of the IL-10 pathway (62 genes) affected (human corneal epithelium): 6
genes of the TLR4/HSP pathway (54 genes) significantly affected (human corneal epithelium): 5
genes of the Th17/IL-17 pathway (44 genes) with significant changes in gene expression (human corneal epithelium): 7
inhibition of MMP2 activity (MMP2): inhibited MMP2 activity in a dose-dependent manner
formation of capillary-like structures / inhibition of angiogenesis [3]: did not form such structures
cell death (released LDH) ([2]; 10 μM peptide): statistically significant reduction in cell death

RKFHEKHHSHREFPFYGDYGSNYLYDN [HTN2, endogenous (native) histatin 2]
formation of capillary-like structures / inhibition of angiogenesis [3]: inhibition of angiogenesis

RKFHEKHHSHRGYR [SEQ ID NO:53]
fungicidal activity [5]: exhibit fungicidal activity
